Among the test systems are OVCAR-5; T47D; SK-OV-3; SF-268; SK-MEL-5; COLO 205; NCI/ADR-RES; OVCAR-8; MDA-MB-231; NCI-H226; A498; SNB-75; CCRF-CEM; MDA-MB-435; M14; KM12; K562; HCT-116; 786-0; SR.
Experiment in all cases: growth of human tumour cells (NCI), 48 h

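Where inhibition never reached the appropriate level, the endpoint shown equals the highest concentration tested. Otherwise, values were interpolated linearly from a five-concentration, 48-hour dose response in 96-well plates. GI50 marks 50% less growth.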 Active and inactive are the calls of the source. Cut-off read from the data, not from the text of the source: active = GI50 up to about 1.1 µM and inactive = higher.

With `CC(NNC(=O)c1ccncc1)c1ccc(F)cc1` (stereo not drawn), the GI50 in the test with OVCAR-5, in the test on T47D, in the test on SK-OV-3, in the test on SF-268, in the test with SK-MEL-5 and with COLO 205 was > 100 µM (inactive) throughout. For the same compound, the GI50 with NCI/ADR-RES, with OVCAR-8, in the test on MDA-MB-231, in the test on NCI-H226, in the test on A498 and in the test on SNB-75 was > 100 µM (inactive) in each case. In addition, the GI50 in the test with CCRF-CEM was > 100 µM (inactive); with MDA-MB-435, > 100 µM (inactive); with M14, 41.8 µM (inactive); in the test on KM12, > 100 µM (inactive); with K562 it was > 100 µM (inactive); in the test with HCT-116, > 100 µM (inactive). Besides, the GI50 in the test on 786-0 is > 100 µM (inactive).

Consider `COC(=O)C12CCC(C(=O)OC)(Cc3c(c4ccccc4n3S(=O)(=O)c3ccccc3)C1)C2=O` (stereo not drawn), for which the GI50 in the test on OVCAR-5 was > 32.2 µM (inactive); in the test on T47D it was > 100 µM (inactive); in the test on SK-OV-3, > 70.8 µM (inactive); with SF-268, > 61 µM (inactive); with SK-MEL-5, 9.29 µM (inactive); in the test with COLO 205 it was > 100 µM (inactive). Moreover, the GI50 is 16.7 µM (inactive) with NCI/ADR-RES; > 92.7 µM (inactive) in the test on OVCAR-8; > 100 µM (inactive) in the test with MDA-MB-231; > 100 µM (inactive) in the test with A498; > 60.7 µM (inactive) in the test with SNB-75; 1 µM (active) in the test with CCRF-CEM. Moreover, the GI50 with SR is > 100 µM (inactive); in the test with MDA-MB-435 it was > 100 µM (inactive); in the test with M14, > 63.8 µM (inactive); with KM12, > 100 µM (inactive); in the test with K562, 62.1 µM (inactive); in the test on 786-0, > 42.1 µM (inactive).

With `O=C(NCCCCCCCCNC(=O)Nc1cccc2ccccc12)Nc1cccc2ccccc12`, the GI50 in the test on OVCAR-5 was 41.7 µM (inactive); in the test with T47D it was 24 µM (inactive); in the test with SF-268, 14.1 µM (inactive); in the test with SK-MEL-5, 42.3 µM (inactive); in the test on COLO 205, 35.6 µM (inactive); in the test on NCI/ADR-RES, 46.7 µM (inactive). Further, the GI50 in the test with OVCAR-8 was 18.5 µM (inactive); with MDA-MB-231, 7.69 µM (inactive); in the test with A498, 11 µM (inactive); in the test with SNB-75 it was 35.5 µM (inactive); in the test with CCRF-CEM, 12.9 µM (inactive); in the test with SR, > 10 µM (inactive). The GI50 in the test on MDA-MB-435 was 17.3 µM (inactive); in the test on M14, > 100 µM (inactive); with KM12, > 100 µM (inactive); with K562 it was 14.5 µM (inactive); in the test with HCT-116, 9.55 µM (inactive); with 786-0, 10.1 µM (inactive).

With `Oc1ccccc1CNCc1ccccc1O`, the GI50 in the test with OVCAR-5 was > 100 µM (inactive); in the test on T47D it was > 100 µM (inactive); in the test on SK-OV-3, > 100 µM (inactive); in the test with SF-268, > 100 µM (inactive); with SK-MEL-5, 46.9 µM (inactive); in the test on COLO 205, 34 µM (inactive). Moreover, the GI50 in the test on NCI/ADR-RES, with OVCAR-8, in the test with MDA-MB-231, in the test on NCI-H226, in the test on A498 and in the test on SNB-75 was > 100 µM (inactive) each time. Moreover, the GI50 in the test with CCRF-CEM was 59.2 µM (inactive); in the test with MDA-MB-435 it was 54.3 µM (inactive); in the test with M14, > 100 µM (inactive); in the test on KM12 it was > 100 µM (inactive); in the test on K562, 39.6 µM (inactive); with HCT-116, > 100 µM (inactive). The GI50 with 786-0 was > 100 µM (inactive).

As for `Oc1ccc2ccccc2c1CN(Cc1c(O)ccc2ccccc12)C1CCCCC1`, the GI50 in the test on OVCAR-5 is 41.9 µM (inactive); in the test on T47D, 31.9 µM (inactive); in the test on SK-OV-3, 42 µM (inactive); in the test with SF-268, 14.1 µM (inactive); in the test with SK-MEL-5 it was 14.9 µM (inactive); with COLO 205, 16.1 µM (inactive). Besides, the GI50 with NCI/ADR-RES is 23.5 µM (inactive); in the test on OVCAR-8, 21.3 µM (inactive); with MDA-MB-231, 18.5 µM (inactive); in the test on A498, 27 µM (inactive); with SNB-75, 21.8 µM (inactive); with CCRF-CEM, 27.3 µM (inactive). In addition, the GI50 in the test with SR was 21.3 µM (inactive); in the test with MDA-MB-435 it was 19.2 µM (inactive); in the test with M14, 15.2 µM (inactive); in the test on KM12, 28.2 µM (inactive); in the test with K562, 19.5 µM (inactive); in the test on HCT-116, 15.8 µM (inactive). Also, the GI50 in the test on 786-0 is 15.6 µM (inactive).

Consider `COc1ccccc1/C=N/Nc1nnc2c3ccccc3c3ncccc3c2n1`, for which the GI50 was 79.4 µM (inactive) in the test on OVCAR-5; 39.7 µM (inactive) in the test with T47D; 32.8 µM (inactive) with SK-OV-3; 29.9 µM (inactive) in the test with SF-268; 89.5 µM (inactive) in the test with SK-MEL-5; > 100 µM (inactive) in the test with COLO 205. In addition, the GI50 in the test on NCI/ADR-RES was 38.1 µM (inactive); with OVCAR-8, 30 µM (inactive); in the test on MDA-MB-231, 26.2 µM (inactive); in the test with SNB-75 it was 19.3 µM (inactive); with CCRF-CEM, 17.6 µM (inactive); with SR it was 39.9 µM (inactive). For the same compound, the GI50 in the test with MDA-MB-435 was > 100 µM (inactive); in the test with M14, 50.5 µM (inactive); in the test with KM12, > 100 µM (inactive); with K562, 70.8 µM (inactive); in the test on HCT-116, 72.4 µM (inactive); in the test on 786-0 it was 28.1 µM (inactive).

On to `CCCCC1Cc2cc(OC)ccc2-c2nc3cc(OC)ccc3n21.CCCCC1Cc2cc(OC)ccc2-c2nc3ccc(OC)cc3n21` (stereo not drawn), for which the GI50 with OVCAR-5 was 16.9 µM (inactive); in the test with T47D, 13.1 µM (inactive); in the test with SK-OV-3, 13.5 µM (inactive); in the test with SF-268 it was 17.6 µM (inactive); with SK-MEL-5 it was 14.3 µM (inactive); in the test on COLO 205, 4.9 µM (inactive). In addition, the GI50 in the test on NCI/ADR-RES was 13.2 µM (inactive); with OVCAR-8, 15.6 µM (inactive); in the test with MDA-MB-231, 13.1 µM (inactive); with NCI-H226, 14 µM (inactive); with CCRF-CEM it was 13.8 µM (inactive); with SR it was 11.6 µM (inactive). The GI50 in the test on MDA-MB-435 is 13.2 µM (inactive); in the test on M14, 15 µM (inactive); in the test on KM12, 18.7 µM (inactive); in the test with K562, 10.5 µM (inactive); with HCT-116, 10.9 µM (inactive); in the test on 786-0 it was 14.7 µM (inactive).

Consider `O=C(O)CC(NC(=O)CP(=O)(O)O)C(=O)O` (stereo not drawn), for which the GI50 in the test on OVCAR-5 is 6120 µM (inactive); in the test with T47D, 1290 µM (inactive); in the test on SK-OV-3, 5730 µM (inactive); with SF-268, 180 µM (inactive); in the test with SK-MEL-5, 101 µM (inactive); in the test with COLO 205 it was 558 µM (inactive). The GI50 is 1020 µM (inactive) in the test on NCI/ADR-RES; 149 µM (inactive) with OVCAR-8; 1360 µM (inactive) in the test with MDA-MB-231; 2280 µM (inactive) with NCI-H226; 2470 µM (inactive) in the test on A498; 6080 µM (inactive) in the test with SNB-75. The GI50 in the test with CCRF-CEM is 682 µM (inactive); with MDA-MB-435, 37.6 µM (inactive); in the test on M14 it was 383 µM (inactive); with KM12, 149 µM (inactive); in the test with K562, 94.8 µM (inactive); in the test on HCT-116, 21.5 µM (inactive). The GI50 in the test on 786-0 was 40 µM (inactive).

For the compound `C=C1CCCCCCCCCCC12SCCC2CCCCSC` (stereo not drawn), the GI50 with OVCAR-5 is 20 µM (inactive); with T47D, 17.9 µM (inactive); with SK-OV-3, 47.3 µM (inactive); with SF-268 it was 28.7 µM (inactive); in the test on SK-MEL-5, 17.3 µM (inactive); in the test on COLO 205 it was 19 µM (inactive). Also, the GI50 was 20.8 µM (inactive) with NCI/ADR-RES; 28.8 µM (inactive) in the test with OVCAR-8; 19.9 µM (inactive) in the test on MDA-MB-231; 20.4 µM (inactive) in the test on NCI-H226; 20.8 µM (inactive) in the test with A498; 33.1 µM (inactive) with SR. The GI50 is 26.1 µM (inactive) in the test on MDA-MB-435; 19.9 µM (inactive) with M14; 22.9 µM (inactive) in the test on K562; 17.8 µM (inactive) with HCT-116; 29.2 µM (inactive) with 786-0.

For `Cc1ccc(N(C)S(=O)(=O)c2ccccc2[N+](=O)[O-])cc1`, the GI50 with OVCAR-5 was 65.5 µM (inactive); in the test on T47D, 77.4 µM (inactive); in the test with SF-268, 48.4 µM (inactive); in the test on COLO 205, 57.3 µM (inactive); in the test with NCI/ADR-RES it was 37.5 µM (inactive); with OVCAR-8, 48.6 µM (inactive). Moreover, the GI50 in the test on MDA-MB-231 is 41 µM (inactive); in the test on NCI-H226 it was 27.3 µM (inactive); in the test on SR, 47.4 µM (inactive); in the test with MDA-MB-435, 29.2 µM (inactive); in the test on M14 it was 21.6 µM (inactive); in the test on KM12, 29.4 µM (inactive). For the same compound, the results for the GI50 in the test on HCT-116 and in the test on 786-0 were 39.1 µM (inactive) and > 100 µM (inactive), respectively.

For `CN(C)c1ccc(/C=C2\N=C(c3ccccc3)N(/N=C3\C(=O)Nc4ccccc43)C2=O)cc1`, the GI50 in the test on OVCAR-5 was > 100 µM (inactive); in the test on T47D, 41.6 µM (inactive); in the test with SK-OV-3 it was > 100 µM (inactive); with SF-268 it was 39.6 µM (inactive); in the test on SK-MEL-5, 47.8 µM (inactive); with COLO 205 it was 30.2 µM (inactive). The GI50 in the test with NCI/ADR-RES is 83.8 µM (inactive); with OVCAR-8 it was 55 µM (inactive); with MDA-MB-231 it was 92.5 µM (inactive); in the test on A498, 73.6 µM (inactive); with SNB-75, 57.9 µM (inactive); in the test on CCRF-CEM it was 37.2 µM (inactive). The GI50 in the test on SR is 27 µM (inactive); with MDA-MB-435, 20.4 µM (inactive); in the test with M14, 91.4 µM (inactive); in the test with KM12 it was 50.9 µM (inactive); in the test with K562, 32 µM (inactive); in the test on HCT-116 it was 57.3 µM (inactive). Moreover, in the test with 786-0, the GI50 is 52.4 µM (inactive).

(Values after ChEMBL document CHEMBL1201862, “PubChem BioAssay data set” (2004).)
